Experimental data from US20240374879A1, “METHODS AND COMPOSITIONS TO REDUCE CELLULAR DEPOSITION, AND HYDROCEPHALUS SHUNT FAILURE” (Wayne State University, priority 2021, published 2024).

System: Human astrocyte cells
Test: Multiplex ELISA of cytokine concentrations in astrocyte culture media
Type: cell-based
Details: for % Change of Cytokine Concentration IL-1α, GIT 27 vs DMSO treated vehicle / % Change of Cytokine Concentration IL-1β, GIT 27 vs DMSO treated vehicle / % Change of Cytokine Concentration IL-6, GIT 27 vs DMSO treated vehicle / % Change of Cytokine Concentration IL-8, GIT 27 vs DMSO treated vehicle / % Change of Cytokine Concentration IL-10, GIT 27 vs DMSO treated vehicle / % Change of Cytokine Concentration TNF-α, GIT 27 vs DMSO treated vehicle: GIT 27 1000 μg/mL
Description: Media Creation: A media stock solution was created by combining astrocyte media (ScienCell), supplement kit, 10 mL fetal bovine serum (FBS), 5 mL penicillin/streptomycin, and 5 mL astrocyte growth serum (ScienCell), and an additional 10 mL FBS (ScienCell). IL-1β and IL-10 were diluted to a concentration of 50,000 ng/mL and 100,000 ng/mL, respectively, in phosphate buffer solution (PBS, w/v). GIT 27 was dissolved in a dimethyl sulfoxide (DMSO) vehicle (Sigma-Aldrich) to a concentration of 20 mg/mL (w/v).
Media solutions for the different groups were made directly before each media change. Cytokines IL-1β or IL-10 were added to the media stock solution for a final concentration of 14.67 ng/mL. GIT 27 was added for a concentration of 1000 μg/mL in the media stock solution for our experimental group. […] Our vehicle group contained 50 μL/mL DMSO alone, which is proportional to the amount in the GIT 27 treated group. Concentrations were then made for evaluation of dose and time dependency (FIGS. 6A-6F).
Cell Culture: Human astrocyte cells were initially grown in T75 flasks with media changes every three days using basic astrocyte media and washed with Hanks Balanced Salt Solution without Calcium and Magnesium (Gibco). Once the flasks came to confluency, the cells were trypsinized using Trypsin-EDTA at 0.25% (Gibco) and seeded at a seeding density of 250,000 cells per well. These samples were broken up into three treatment groups: control, DMSO, and GIT 27 tested as a pre-treatment, simultaneous treatment, and post-treatment (FIGS. 6A-6F). Each group and treatment time were then either exposed to IL-1β or IL-10 separately at concentrations described for media creation.
ELISA: As previously published, the Bursky Center for Human Immunology & Immunotherapy Programs Immunomonitoring Laboratory at Washington University School of Medicine ran the multiplex assays according to the manufacturer's protocol (Khodadadei et al., bioRxiv 2021.11.04.467357, 2021. https://doi.org/10.1101/2021.11.04.467357). Samples of culture media analyzed were collected on days 1, 5, 7, 9, 12, and 14 of culture following seeding day. Each frozen supernatant media sample was rapidly thawed at 37° C. and centrifuged at 15,000 G for five minutes prior to incubating with the two-multiplex immunoassay for the following inflammatory cytokines: IL-1α, IL-1β, IL-6, TNF-α, IL-8, IL-10 (ThermoFisher Scientific), C3, and C1q (Millipore Sigma). Magnetic beads and assay buffer were added to all the wells of a 96 well-plate. Media samples and standards were then added in duplicate. The wells were thoroughly washed, and the detection antibody was then added followed by a streptavidin phycoerythrin incubation. Beads were resuspended with sheath fluid and 50 beads per region were acquired on a Luminex FLEXMAP3D system. The concentration of each analyte was then calculated by comparing the sample mean fluorescent intensity to the appropriate standard curve. Belysa v.1 software (Millipore Sigma) was used to generate a 5-parameter logistical curve fit algorithm. Protein concentration is reported as pg/mL for each analyte.
Statistical Analysis: Three conditions were tested in this experiment, treatment group, treatment time, and IL B or IL10 exposure, with a total of 16 different samples tested with an n=five of replicates. The three treatment groups tested were a control, vehicle control (DMSO), and GIT 27 (G27). Each treatment group was tested as a pre-treatment (denoted Pre-), dose simultaneous to treatment (denoted Sim-), and post-treatment (denoted Post-) as time points with respect to shunt insertion represented by exposure to either IL-1β (IL1B) or IL-10 (IL10). Utilizing the abbreviations described here we combined these to allow for an easier understand of the results presented. An example of this can be control Pre-IL1B, DMSO Pre-IL1B, and G27 Pre-IL1B which represents the three treatment groups when used as a pre-treatment to IL-1β exposure.

[1] = G27 Sim-IL1B compared to G27 Post-IL1B
[2] = G27 Sim-IL1B compared to G27 Pre-IL1B
[3] = G27 Sim-IL10 compared to both G27 Pre-IL10 and G27 Post-IL10
[4] = Post-IL10, vs control Post-IL10
[5] = Post-Treatment (C), exposed to IL-1β
[6] = Post-Treatment (C), exposed to IL-10
[7] = Pre-IL1B, vs DMSO Pre-IL1B (not vs control)
[8] = Pre-Treatment (A), exposed to IL-1β
[9] = Pre-Treatment (A), exposed to IL-10
[10] = Simultaneous Treatment (B), exposed to IL-1β
[11] = Simultaneous Treatment (B), exposed to IL-10

Compound: O=C(O)CC1CC(c2ccccc2)=NO1 (centres unmarked) [GIT 27, 4,5-Dihydro-3-phenyl-5-isoxazoleacetic acid]
- IL-10 concentration by treatment time (G27 Post-IL10 compared to G27 Sim-IL10): significantly lower
- TNF-α concentration by treatment time (G27 Pre-IL10 compared to G27 Sim-IL10 and G27 Post-IL10): significantly higher
- IL-6 concentration by treatment time [1]: significantly lower
- TNF-α concentration by treatment time [1]: significantly lower
- IL-10 concentration by treatment time [2]: lower
- TNF-α concentration by treatment time [2]: lower
- IL-1α concentration by treatment time [3]: significantly higher
- IL-1β concentration by treatment time [3]: significantly higher
- IL-1α concentration compared to both control and DMSO (Post-IL1B): significantly lower
- IL-10 concentration compared to both control and DMSO (Post-IL1B): significantly lower
- IL-6 concentration compared to DMSO (Post-IL1B, vs DMSO Post-IL1B): significantly lower
- IL-8 concentration compared to DMSO (Post-IL1B, vs DMSO Post-IL1B): significantly lower
- TNF-α concentration compared to DMSO (Post-IL1B, vs DMSO Post-IL1B): significantly lower
- IL-1α concentration compared to control and DMSO (Post-IL10): significantly lower
- IL-6 concentration compared to control and DMSO (Post-IL10): significantly lower
- IL-8 concentration compared to control and DMSO (Post-IL10): significantly lower
- TNF-α concentration compared to DMSO (Post-IL10, vs DMSO Post-IL10): significantly lower
- IL-10 concentration compared to control [4]: significantly lower
- TNF-α concentration compared to control [4]: significantly lower
- % Change of Cytokine Concentration IL-1α, GIT 27 vs DMSO treated vehicle [5]: −20.17%
- % Change of Cytokine Concentration IL-1β, GIT 27 vs DMSO treated vehicle [5]: −16.52%
- % Change of Cytokine Concentration IL-6, GIT 27 vs DMSO treated vehicle [5]: −28.57%
- % Change of Cytokine Concentration IL-8, GIT 27 vs DMSO treated vehicle [5]: −57.49%
- % Change of Cytokine Concentration IL-10, GIT 27 vs DMSO treated vehicle [5]: −33.02%
- % Change of Cytokine Concentration TNF-α, GIT 27 vs DMSO treated vehicle [5]: −33.45%
- % Change of Cytokine Concentration IL-1α, GIT 27 vs DMSO treated vehicle [6]: −85.58%
- % Change of Cytokine Concentration IL-1β, GIT 27 vs DMSO treated vehicle [6]: 0.00%
- % Change of Cytokine Concentration IL-6, GIT 27 vs DMSO treated vehicle [6]: −76.82%
- % Change of Cytokine Concentration IL-8, GIT 27 vs DMSO treated vehicle [6]: −78.86%
- % Change of Cytokine Concentration IL-10, GIT 27 vs DMSO treated vehicle [6]: −71.33%
- % Change of Cytokine Concentration TNF-α, GIT 27 vs DMSO treated vehicle [6]: −80.45%
- IL-1α concentration, difference between treatment groups (Pre-IL1B): no significant difference
- IL-8 concentration, difference between treatment groups (Pre-IL1B): no significant difference
- IL-10 concentration, difference between treatment groups (Pre-IL1B): no significant difference
- TNF-α concentration, difference between treatment groups (Pre-IL1B): no significant difference
- IL-1β concentration compared to DMSO [7]: significantly lower
- IL-6 concentration compared to DMSO [7]: significantly lower
- any of the cytokine concentrations, difference between treatment groups (Pre-IL10): no significant difference
- % Change of Cytokine Concentration IL-1α, GIT 27 vs DMSO treated vehicle [8]: −30.49%
- % Change of Cytokine Concentration IL-1β, GIT 27 vs DMSO treated vehicle [8]: −42.70%
- % Change of Cytokine Concentration IL-6, GIT 27 vs DMSO treated vehicle [8]: −76.60%
- % Change of Cytokine Concentration IL-8, GIT 27 vs DMSO treated vehicle [8]: −31.56%
- % Change of Cytokine Concentration IL-10, GIT 27 vs DMSO treated vehicle [8]: 26908.58%
- % Change of Cytokine Concentration TNF-α, GIT 27 vs DMSO treated vehicle [8]: −12.41%
- % Change of Cytokine Concentration IL-1α, GIT 27 vs DMSO treated vehicle [9]: 11.34%
- % Change of Cytokine Concentration IL-1β, GIT 27 vs DMSO treated vehicle [9]: 0.00%
- % Change of Cytokine Concentration IL-6, GIT 27 vs DMSO treated vehicle [9]: 21.96%
- % Change of Cytokine Concentration IL-8, GIT 27 vs DMSO treated vehicle [9]: −43.65%
- % Change of Cytokine Concentration IL-10, GIT 27 vs DMSO treated vehicle [9]: −6.42%
- % Change of Cytokine Concentration TNF-α, GIT 27 vs DMSO treated vehicle [9]: −13.92%
- IL-1α concentration compared to control (Sim-IL1B, vs control Sim-IL1B): significantly lower
- IL-1β concentration compared to control (Sim-IL1B, vs control Sim-IL1B): significantly lower
- IL-10 concentration compared to control (Sim-IL1B, vs control Sim-IL1B): significantly lower
- TNF-α concentration compared to control (Sim-IL1B, vs control Sim-IL1B): significantly lower
- IL-1α concentration compared to DMSO and control (Sim-IL10): significantly decrease
- IL-8 concentration compared to DMSO and control (Sim-IL10): significantly decrease
- IL-10 concentration compared to both DMSO and control (Sim-IL10): significantly lower
- TNF-α concentration compared to control (Sim-IL10): significantly lowered
- % Change of Cytokine Concentration IL-1α, GIT 27 vs DMSO treated vehicle [10]: −40.83%
- % Change of Cytokine Concentration IL-1β, GIT 27 vs DMSO treated vehicle [10]: −8.24%
- % Change of Cytokine Concentration IL-6, GIT 27 vs DMSO treated vehicle [10]: 31.97%
- % Change of Cytokine Concentration IL-8, GIT 27 vs DMSO treated vehicle [10]: −34.82%
- % Change of Cytokine Concentration IL-10, GIT 27 vs DMSO treated vehicle [10]: −31.11%
- % Change of Cytokine Concentration TNF-α, GIT 27 vs DMSO treated vehicle [10]: −8.65%
- % Change of Cytokine Concentration IL-1α, GIT 27 vs DMSO treated vehicle [11]: −66.52%
- % Change of Cytokine Concentration IL-1β, GIT 27 vs DMSO treated vehicle [11]: −89.31%
- % Change of Cytokine Concentration IL-6, GIT 27 vs DMSO treated vehicle [11]: −28.89%
- % Change of Cytokine Concentration IL-8, GIT 27 vs DMSO treated vehicle [11]: −81.04%
- % Change of Cytokine Concentration IL-10, GIT 27 vs DMSO treated vehicle [11]: −49.58%
- % Change of Cytokine Concentration TNF-α, GIT 27 vs DMSO treated vehicle [11]: −53.95%
- IFN-γ concentration (any of the treatment groups): no detectable concentration
